Assays:
[1] = test system: gastric adenocarcinoma SGC-7901 cells; assay: MTT antiproliferative assay, SGC-7901; assay type: cell-based, human; settings: Homo sapiens, SGC-7901; MTT assay, 24 h exposure, triplicate; read-out: IC50 SGC-7901
Procedure: (§1) The SGC-7901, A549 and HT-1080 cell lines were purchased from the American Type Culture Collection (ATCC, Manassas, VA, USA). […] Briefly, approximately 3 × 10^4 cells were seeded in a 96-well plate. After 24 h of incubation at 37 °C, cells were exposed to compounds of differing concentrations for 24 h. After treatment, cells were washed with 1X PBS followed by addition of 100 µL of 0.05% MTT reagent to each well, followed by incubation for 4 h at 37 °C. After incubation, the supernatant from each well was carefully removed and the formazan crystals were dissolved in 100 µL of DMSO. The colour density was measured spectrophotometrically at 490 nm using a microplate reader (SpectraMax Plus384, Molecular Devices Corp., USA). The data were calculated and plotted as percent viability compared to control.
as §1

[2] = test system: fibrosarcoma HT-1080 cells; assay: MTT antiproliferative assay, HT-1080; assay type: cell-based, human; settings: Homo sapiens, HT-1080; MTT assay, 24 h exposure, triplicate; read-out: IC50 HT-1080
Procedure: as §1, §1

[3] = molecular target: T1, highly purified tubulin from porcine brain (Sus scrofa, UniProt P02554); assay: Tubulin polymerization assay; assay type: biochemical; settings: 37 °C; for effect on tubulin polymerization in words: CA-4 0.5-4 µM, 6i 0.1-8.0 µM, paclitaxel 5.0 µM
T1 construct: highly purified tubulin from porcine brain; purchased Cytoskeleton BK011P; host or cells: porcine brain (tissue-purified)
T1 sequence (P02554 whole entry): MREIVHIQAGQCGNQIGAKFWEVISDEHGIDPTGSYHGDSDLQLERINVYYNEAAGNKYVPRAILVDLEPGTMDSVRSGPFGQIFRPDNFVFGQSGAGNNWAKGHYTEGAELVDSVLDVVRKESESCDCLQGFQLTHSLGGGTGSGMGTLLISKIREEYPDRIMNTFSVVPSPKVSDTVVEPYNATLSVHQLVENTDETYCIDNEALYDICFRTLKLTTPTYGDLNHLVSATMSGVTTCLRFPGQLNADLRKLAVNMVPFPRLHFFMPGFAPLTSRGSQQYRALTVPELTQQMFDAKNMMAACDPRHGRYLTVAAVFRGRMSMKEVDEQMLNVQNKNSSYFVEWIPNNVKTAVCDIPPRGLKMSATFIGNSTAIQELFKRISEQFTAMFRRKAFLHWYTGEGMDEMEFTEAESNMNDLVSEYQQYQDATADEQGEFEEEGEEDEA
T1 sequence (P02550 whole entry partner): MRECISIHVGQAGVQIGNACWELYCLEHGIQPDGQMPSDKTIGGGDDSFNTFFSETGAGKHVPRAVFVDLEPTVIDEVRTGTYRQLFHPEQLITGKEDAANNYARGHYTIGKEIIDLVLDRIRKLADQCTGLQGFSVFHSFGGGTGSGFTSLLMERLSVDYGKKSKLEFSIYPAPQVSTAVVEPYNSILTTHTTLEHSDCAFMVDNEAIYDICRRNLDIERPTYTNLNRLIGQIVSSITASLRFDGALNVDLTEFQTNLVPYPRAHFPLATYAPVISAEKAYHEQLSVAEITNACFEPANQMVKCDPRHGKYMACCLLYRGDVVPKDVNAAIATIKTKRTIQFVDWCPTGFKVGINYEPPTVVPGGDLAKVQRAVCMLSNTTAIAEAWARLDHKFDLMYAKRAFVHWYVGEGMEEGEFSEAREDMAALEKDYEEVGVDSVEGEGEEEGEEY
Procedure: This assay uses highly purified tubulin from porcine brain.
The reaction was monitored at 37 °C.
(§2) Tubulin polymerization assay[33] was conducted with reagents as described in the kit manufacturer (Cytoskeleton, Cat.#BK011P) in a 96-well plate. In brief, tubulin was re-suspended in ice-cold G-PEM buffer (80 mM PIPES, 2 mM MgCl2, 0.5 mM EGTA, 1 mM GTP, 20% (v/v) glycerol) and added to wells on a 96-well plate containing the designated concentration of drugs or vehicle. Samples were mixed well, and tubulin assembly was monitored (emission wavelength: 450 ± 20 nm; excitation wavelength: 360 ± 20 nm) at 1 min intervals for 90 min at 37 °C in a SpectraMax 340PC spectrophotometer (Biotek Synergy HT, Winooskin, VT, USA). IC50 values were calculated from data at the 20 min time point using GraphPad Prism software. Experiments were repeated three times.
as §2, with “assay” for “assay[33]”, “450±20” for “450 ± 20”, “360±20” for “360 ± 20”, “timepoint” for “time point”

HCT116 = test system: HCT116; set-up: method as in Org. Biomol. Chem. 2005, 3, 2657-2660; settings: ref Org. Biomol. Chem. 2005, 3, 2657-2660; cited from earlier work

IC50 ([3]; data at the 20 min time point, read-out: IC50 of tubulin polymerization inhibition) | melting point | Structure (SMILES) | IC50 [1] | IC50 [2] | effect on tubulin polymerization in words [3] | IC50 (HCT116)
– | – | COc1ccc(/C=C\c2cc(OC)c(OC)c(OC)c2)cc1O [CA-4, Combretastatin A-4, reference compound] | 11 nM | 13 nM | dose-dependent inhibition of tubulin polymerization | 16 nM
1600 nM | 138 to 140 °C | COc1cccc(-c2nnc3n2N=C(c2ccc(OC)c(N)c2)CS3)c1 [Compound 6i, 3-(3-Methoxyphenyl)-6-(3-amino-4-methoxyphenyl)-7H-[1,2,4]triazolo[3,4-b][1,3,4]thiadiazine] | 11 nM | 14 nM | dose-dependent inhibition of tubulin polymerization | –

Reference: article PMC5607265, “Design, synthesis and structure-activity relationship of 3,6-diaryl-7H-[1,2,4]triazolo[3,4-b][1,3,4]thiadiazines as novel tubulin inhibitors” (Scientific Reports, 2017)
